Laboratory results published in US10350192B2, “Lactate dehydrogenase inhibitor and antiepileptic drug containing the same” (NATIONAL UNIVERSITY CORPORATION OKAYAMA UNIVERSITY, priority 2015, dated 2019).
Values joined by “and” are separate entries in the source; they are usually repeats but may differ in a detail not shown here. Equal values may be shown once. “Also recorded” adds a separate entry of the source.

Assays:
[1] = system: hippocampal sclerosis model mouse; assay: Epileptic spikes in hippocampal sclerosis model mouse (intrahippocampal kainate); type: in vivo
Procedure: Preparation and measurement of hippocampal sclerosis model mouse (FIGS. 1 to 3): The hippocampal sclerosis model mouse was prepared according to a previous literature (Non-Patent Document 15). Six to seven-week-old ICR mice were used for the experiment. Mice were fully anesthetized with a mixture of ketamine (100 mg/kg) and xylazine (20 mg/kg) and then set on a brain stereotaxic apparatus. Using a micro glass electrode and a Hamilton syringe from above the hippocampus of the head, a trace amount of kainate (0.8 nmol, 40 nL) for inducing epilepsy was injected into the dorsal hippocampus (1.6 mm behind the bregma, 1.6 mm laterally from the centerline, 1.4 mm deep from the brain surface), and then a metal electrode (a diameter of 200 μm) for epileptic electroencephalography was embedded near the kainic acid injection site. In addition, a small plastic U-shaped frame for head fixation required for in vivo electrical measurements was also attached to the head. After 2 weeks or more from surgery, epileptic spikes in the hippocampus were measured. The head was fixed via the U-shaped frame. Epileptic spikes were amplified, then measured via a band-pass filter (0.5-30 Hz) and taken into a computer using an AD converter. After measurement of the baseline electroencephalogram for 30 minutes, stiripentol (300 mg/kg), isosafrole (100-300 mg/kg), sodium oxamate (250-500 mg/kg), or physiological saline was intraperitoneally administered, and then further recording was conducted for 1 hour. Sodium oxamate was dissolved in water, and stiripentol and isosafrole were dissolved in sodium carboxymethyl cellulose (1%) and administered intraperitoneally. In data analysis, high-amplitude epilepsy spikes with an amplitude of 0.5 mV or more were counted 30 minutes before and after administration, respectively, and the efficacy was evaluated by normalization using the number of epileptic spikes before administration. In the observation of morphological changes due to hippocampal sclerosis, the brain was sliced to 300 μm thickness, fixed with 10% formalin, and stained with 0.05% cresylviolet.
Medial temporal lobe epilepsy with hippocampal sclerosis is a typical refractory epilepsy in adults (epilepsy for which existing drugs are not effective). First, according to a previous literature (Non-Patent Document 15), a trace amount of kainic acid was injected to a hippocampus to prepare hippocampal sclerosis model mouse (FIG. 1A). […] This is the same finding as the already reported hippocampal sclerosis model mouse (Non-Patent Document 15), which is similar to the symptom observed in human hippocampal sclerosis (Non-Patent Document 16). When recording on the hippocampus, spontaneous high-amplitude epileptic spikes were observed (FIG. 1C; arrowhead). […]

human LDH-5 [2] = target: T1, human LDH-5 (Homo sapiens, UniProt P00338); assay: Lactate dehydrogenase activity by NADH light absorption at 340 nm, LDH-5; type: biochemical; details: 500 μM
Procedure: (§1) Evaluation of inhibition of lactate dehydrogenase by isosafrole (FIG. 4): The activity of lactate dehydrogenase was measured by a versatile method based on light absorption of NADH. Lactate dehydrogenase is an enzyme that interconverts pyruvate and lactate. At that time, NADH and NAD are also interconverted. For lactate dehydrogenase activity from lactate to pyruvate, lactate (20 mM), NAD (200 μM) and lactate dehydrogenase were added and the reaction rate of NADH produced was measured. On the other hand, for the lactate dehydrogenase activity from pyruvate to lactate, pyruvate (1.0 mM), NADH (200 μM) and lactate dehydrogenase were added and the reaction rate of decreasing NADH was measured. Both reactions were carried out at 37° C. in 100 mM sodium phosphate buffer (pH7.3). The light absorption of NADH at 340 nm was measured using an absorptiometer at 30 second intervals for 3.5 minutes to determine the reaction rate. Two kinds of human lactate dehydrogenase (human LDH-1 and LDH-5) were examined as lactate dehydrogenase. The amount of lactate dehydrogenase was set so that the maximum rates of the two lactate dehydrogenases were approximately the same: 0.0033 units/ml of LDH-1 and 0.01 units/ml of LDH-5 for the activity from lactate to pyruvate; and 0.0017 units/ml of LDH-1 and 0.0033 units/ml of LDH-5 for the activity from pyruvate to lactate. […]

human LDH-5 [3] = target: T1, human LDH-5; assay: Lactate dehydrogenase inhibition rate, diaphorase/INT formazan coloring reaction (492 nm); type: biochemical
Procedure: Identification of a lactate dehydrogenase inhibitor having isosafrole as a scaffold (FIGS. 5 to 7): Since NADH absorbs light in the ultraviolet region (340 nm) and many compounds absorb the wavelength, NADH is not suitable for screening using a compound library. Therefore, in order to evaluate the lactate dehydrogenase activity from pyruvate to lactate, pyruvate (100 μM), NADH (100 μM) and lactate dehydrogenase (0.015 U/mL of human LDH-5) were firstly added, then allowed to react in a 100 mM sodium phosphate buffer (pH7.3) at 37° C. for 60 minutes (LDH enzyme reaction, 200 μL/well). At this stage, the background absorbance at 492 nm was first measured with a plate reader (absorbance before coloring reaction). Next, in order to measure the amount of NADH remaining in the LDH enzyme reaction, 100 μL/well of a coloring solution in which diaphorase (25 U/mL) and INT (5 mM) were dissolved was added, and then allowed to react in a 100 mM sodium phosphate buffer (pH7.3) at 37° C. for 10 minutes (coloring reaction). Since INT changes to INT formazan by diaphorase in the presence of NADH and develops color, the absorbance at 492 nm of INT formazan was measured with a plate reader (absorbance after coloring reaction).
Calculation of the inhibition rate (% Inhibition) is as follows. ΔA when the above reaction was carried out under the condition that lactate dehydrogenase was present was taken as “0% control value”, and ΔA when the above reaction was carried out under the condition that lactate dehydrogenase was absent was taken as “100% control value”. […] Then, the same reaction as the 0% control was carried out in the presence of a compound having isosafrole as a scaffold, and resultant ΔA was defined as “ΔA in the presence of the compound”. […] Specifically, inhibition rate is calculated as follows: Inhibition rate (%)=100×(ΔA in the presence of the compound−0% control value)/(100% control value−0% control value). Compounds showing inhibition rate of 100% (±25%) were described in FIGS. 6 and 7 as lactate dehydrogenase inhibitor. […]

human LDH-1 = human LDH-1 (Homo sapiens, UniProt P07195); assay: Lactate dehydrogenase activity by NADH light absorption at 340 nm, LDH-1; type: biochemical; details: 500 μM
Procedure: as §1

[4] = system: pentylenetetrazole-induced acute epileptic seizures; details: rats, 300 mg/kg intraperitoneal; cited from earlier work
[5] = rats, 300 mg/kg intraperitoneal; cited from earlier work
[6] = 300 mg/kg intraperitoneal, high-amplitude spikes 30 min after vs before administration

human LDH-1, sequence (P07195 2-334 limits assumed): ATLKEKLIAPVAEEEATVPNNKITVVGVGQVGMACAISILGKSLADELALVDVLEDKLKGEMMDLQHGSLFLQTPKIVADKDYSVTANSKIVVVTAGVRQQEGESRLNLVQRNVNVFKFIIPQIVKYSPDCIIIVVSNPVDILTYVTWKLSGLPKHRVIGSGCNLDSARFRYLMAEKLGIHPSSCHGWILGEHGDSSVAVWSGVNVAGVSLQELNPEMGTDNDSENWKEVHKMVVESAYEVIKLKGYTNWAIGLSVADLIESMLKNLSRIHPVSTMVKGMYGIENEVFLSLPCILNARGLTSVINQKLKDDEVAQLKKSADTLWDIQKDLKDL

Row | SMILES | antiepileptic effect on epileptic spikes [1, 6] | antiepileptic effect on epileptic spikes ([1]; 200-300 mg/kg intraperitoneal) | effect on lactate dehydrogenase activity from lactate to pyruvate (human LDH-5 [2]; Lactate→Pyruvate) | effect on lactate dehydrogenase activity from pyruvate to lactate (human LDH-5 [2]; Pyruvate→Lactate) | inhibition of lactate dehydrogenase (LDH-5) (human LDH-5 [3]; 250 μM) | inhibition of lactate dehydrogenase (LDH-5) (human LDH-5 [3]; 500 μM) | inhibition of lactate dehydrogenase (LDH-5) (human LDH-5 [3]; 500 μM, listed as Isosafrole) | effect on lactate dehydrogenase activity from lactate to pyruvate (human LDH-1; Lactate→Pyruvate) | effect on lactate dehydrogenase activity from pyruvate to lactate (human LDH-1; Pyruvate→Lactate) | antiepileptic effect on epileptic spikes ([1]; 500 mg/kg intraperitoneal) | suppression of pentylenetetrazole-induced acute epileptic seizures [4] | plasma concentration [5]
1 | C/C=C/c1ccc2c(c1)OCO2 [isosafrole, 5-(1-propenyl)-1,3-benzodioxole] | significantly suppressed; also recorded: remarkable inhibitory effect on epilepsy | remarkable antiepileptic effect | inhibitory effect | inhibitory effect was strong | not | inhibited | inhibits | inhibitory effect | inhibitory effect was strong |  |  | 
2 | NC(=O)C(=O)[O-].[Na+] [sodium oxamate] |  |  |  |  |  |  |  |  |  | weak anti-epileptic effect |  | 
3 | CC(C)(C)C(O)/C=C/c1ccc2c(c1)OCO2 (stereo not shown) [stiripentol, 4-dimethyl-1-[(3,4-methylenedioxy)-phenyl]-1-penten-3-ol] | scarcely inhibited; also recorded: little antiepileptic effect; also recorded: almost no inhibitory effect |  |  |  |  |  |  |  |  |  | suppressed | 20-100 μg/ml and 85-427 μM
